This is an account of results in patent US20080063719A1, “Pharmaceutical Compositions” (Vectura Limited, priority 2004, published 2008).

What all share (type): physicochemical
A short description of data set [1]: Observation of bulk powder after sealed storage. The following applies: sealed storage for several weeks. The source says:
(§1) Batches of micronised glycopyrrolate were obtained and, following sealed storage for several weeks, the physical changes of the material from fine cohesive powders to solid agglomerates were observed.
(§2) The following section summarises the tests conducted on reported batches of glycopyrrolate received following micronisation: […]

Data set [2] is described as follows: Sympatec sizing of micronised glycopyrrolate batches, after micronisation and on storage. To be noted: for Sympatec sizing d10 / Sympatec sizing d50 / Sympatec sizing d90: following micronisation.
Description: as §1, §2

A short description of data set [3]: DVS (dynamic vapour sorption) moisture sorption analysis. The source says: 100% amorphous glycopyrrolate was obtained by lyophilisation.
Data set [4] is described as follows: Loss on drying and water activity of micronised batches.
Description: as §2

The nature of data set [5]: Particle sizing of micronised and conditioned glycopyrrolate batches, Example 7. To be noted: micronised drug powder. Here is the method:
(§3) The effect of conditioning on micronised glycopyrrolate was investigated. An initial batch of glycopyrrolate ‘A’ was micronised at 9.8 bar with feed rate of 0.2 kg/hour. This material was then conditioned on a tray at 25° C./60% RH, with or without agitation/turning. Each of these powders was sized by Sympatec. The powders were then formulated using the method outlined in Example 4, as 20 μg dose in 25 mg powder with 0.15% magnesium stearate and loaded into gelatin capsules. The fine particle fraction was assessed by firing the capsules from a Miat MonoHaler device into a multi stage liquid impinger, using the method defined in the European Pharmacopoeia 4th Edition 2002. The fine particle fraction was defined here as the mass fraction smaller than 5 μm relative to the nominal dose.
as §3, with “A second” for “The effect of conditioning on micronised glycopyrrolate was investigated. An initial”, “‘B’” for “‘A’”, “0.3” for “0.2”, “powder” for “material was then conditioned on a tray at 25° C./60% RH, with or without agitation/turning. Each of these powders”, “powder was” for “powders were”
as §3, with “A third” for “The effect of conditioning on micronised glycopyrrolate was investigated. An initial”, “glycopyrtolate ‘C’” for “glycopyrrolate ‘A’”, “0.4” for “0.2”
as §3, with “A fourth” for “The effect of conditioning on micronised glycopyrrolate was investigated. An initial”, “‘D’” for “‘A’”, “8.8” for “9.8”, “0.4” for “0.2”, “powder” for “material was then conditioned on a tray at 25° C./60% RH, with or without agitation/turning. Each of these powders”, “powder was” for “powders were”
as §3, with “A fifth” for “The effect of conditioning on micronised glycopyrrolate was investigated. An initial”, “‘E’” for “‘A’”, “7.8” for “9.8”, “0.4” for “0.2”
(§4) Batches A1, C1 and E1 were not conditioned. Batches A2, C2 and E2 were conditioned at 25° C./60% RH and batches A3, C3 and E3 were conditioned at 25° C./60% RH with turning.

Data set [6] is described as follows: MSLI test of formulations made from micronisation trial batches, Example 7. The following applies: 20 μg dose in 25 mg powder, 0.15% magnesium stearate, gelatin capsules. Here is the method: as §3
as §3, with “A second” for “The effect of conditioning on micronised glycopyrrolate was investigated. An initial”, “‘B’” for “‘A’”, “0.3” for “0.2”, “powder” for “material was then conditioned on a tray at 25° C./60% RH, with or without agitation/turning. Each of these powders”, “powder was” for “powders were”
as §3, with “A third” for “The effect of conditioning on micronised glycopyrrolate was investigated. An initial”, “glycopyrtolate ‘C’” for “glycopyrrolate ‘A’”, “0.4” for “0.2”
as §3, with “A fourth” for “The effect of conditioning on micronised glycopyrrolate was investigated. An initial”, “‘D’” for “‘A’”, “8.8” for “9.8”, “0.4” for “0.2”, “powder” for “material was then conditioned on a tray at 25° C./60% RH, with or without agitation/turning. Each of these powders”, “powder was” for “powders were”
as §3, with “A fifth” for “The effect of conditioning on micronised glycopyrrolate was investigated. An initial”, “‘E’” for “‘A’”, “7.8” for “9.8”, “0.4” for “0.2”
as §4

`C[N+]1(C)CCC(OC(=O)C(O)(c2ccccc2)C2CCCC2)C1.[Br-]` (stereo not drawn) [Batch A]: in data set [1], the “state of bulk powder on storage” value is “soft lumps”. Further, in data set [2], the “Sympatec sizing d10” value was determined as 0.7 μm, the “Sympatec sizing d50” value is given as 1.8 μm and the “Sympatec sizing d90” value was determined as 3.6 μm. The “DVS finding (crystalline or amorphous material)” value (shortened to “DVS finding”) in data set [3] is reported as “crystalline material”. This compound showed a Loss on drying in data set [4] of 0.7%.
With `C[N+]1(C)CCC(OC(=O)C(O)(c2ccccc2)C2CCCC2)C1.[Br-]` (stereo not drawn) [Batch B], the “state of bulk powder on storage” value in data set [1] is “large hard lumps”. Also, in data set [2], the “Sympatec sizing d10” value was determined as 1.0 μm, the “Sympatec sizing d50” value turned out to be 2.4 μm and the “Sympatec sizing d90” value was 4.8 μm. For the same compound, the “DVS finding” value in data set [3] is recorded as “amorphous material was present”. In addition, in data set [4], the Loss on drying was 0.6% and the Water activity is listed as 54 % RH.
Regarding `C[N+]1(C)CCC(OC(=O)C(O)(c2ccccc2)C2CCCC2)C1.[Br-]` (stereo not drawn) [Batch C], in data set [1], the “state of bulk powder on storage” value is recorded as “large hard lumps”. For the same compound, in data set [2], the “Sympatec sizing d10” value came to 0.8 μm, the “Sympatec sizing d50” value worked out at 2.3 μm and the “Sympatec sizing d90” value is listed as 4.8 μm. Further, the “d50 on repeated particle sizing” value in data set [2] (on storage) was 51 μm. Besides, the “DVS finding” value in data set [3] is “amorphous material was present”. For the same compound, in data set [4], the Loss on drying is 0.4%.
Turning to `C[N+]1(C)CCC(OC(=O)C(O)(c2ccccc2)C2CCCC2)C1.[Br-]` (stereo not drawn) [Formulation A1], in data set [5], the D10 is recorded as 0.81 μm, the D50 came to 1.95 μm and the D90 came to 3.68 μm. In data set [6] (T = 0), the “% FPD” value is 34.7% and the MMAD worked out at 2.8 μm. In addition, in data set [6] (T = 2 wks), the “% FPD” value amounted to 30.5% and the MMAD is recorded as 3.2 μm.
In data set [5], `C[N+]1(C)CCC(OC(=O)C(O)(c2ccccc2)C2CCCC2)C1.[Br-]` (stereo not drawn) [Formulation A2] had a D10 of 1.22 μm, a D50 of 3.89 μm and a D90 of 10.02 μm.
`C[N+]1(C)CCC(OC(=O)C(O)(c2ccccc2)C2CCCC2)C1.[Br-]` (stereo not drawn) [Formulation A3]: in data set [5], the D10 stood at 1.24 μm, the D50 worked out at 4.03 μm and the D90 stood at 9.78 μm. Besides, in data set [6] (T = 0), the “% FPD” value is 34.5% and the MMAD was 2.8 μm. Moreover, in data set [6] (T = 2 wks), the “% FPD” value amounted to 31.5% and the MMAD turned out to be 3.1 μm.
In data set [5], `C[N+]1(C)CCC(OC(=O)C(O)(c2ccccc2)C2CCCC2)C1.[Br-]` (stereo not drawn) [Formulation C1] returned a D10 of 0.95 μm, a D50 of 2.41 μm and a D90 of 4.83 μm. Also, in data set [6] (T = 0), the “% FPD” value is recorded as 39.9% and the MMAD was 3.9 μm. Further, in data set [6] (T = 2 wks), the “% FPD” value is listed as 35.5% and the MMAD was 4.0 μm.
For `C[N+]1(C)CCC(OC(=O)C(O)(c2ccccc2)C2CCCC2)C1.[Br-]` (stereo not drawn) [Formulation C2], in data set [5], the D10 worked out at 1.24 μm, the D50 was 3.76 μm and the D90 was 7.84 μm. Moreover, in data set [6] (T = 0), the “% FPD” value was 39.2% and the MMAD is reported as 3.3 μm. For the same compound, in data set [6] (T = 2 wks), the “% FPD” value is 34.0% and the MMAD came to 3.6 μm.
In data set [5], `C[N+]1(C)CCC(OC(=O)C(O)(c2ccccc2)C2CCCC2)C1.[Br-]` (stereo not drawn) [Formulation C3] gave a D10 of 1.24 μm, a D50 of 3.97 μm and a D90 of 8.23 μm. In data set [6] (T = 0), the “% FPD” value was 39.9% and the MMAD came out at 3.2 μm. In data set [6] (T = 2 wks), the “% FPD” value stood at 37.9% and the MMAD was 3.4 μm.
Consider `C[N+]1(C)CCC(OC(=O)C(O)(c2ccccc2)C2CCCC2)C1.[Br-]` (stereo not drawn) [Formulation E1], for which, in data set [5], the D10 was found to be 1.01 μm, the D50 is 2.47 μm and the D90 amounted to 4.88 μm. Also, in data set [6] (T = 0), the “% FPD” value is recorded as 39.9% and the MMAD is 3.3 μm. Moreover, in data set [6] (T = 2 wks), the “% FPD” value came to 33.3% and the MMAD turned out to be 3.4 μm.
Regarding `C[N+]1(C)CCC(OC(=O)C(O)(c2ccccc2)C2CCCC2)C1.[Br-]` (stereo not drawn) [Formulation E2], in data set [5], the D10 is on record as 1.28 μm, the D50 stood at 3.61 μm and the D90 is 7.08 μm.
In the case of `C[N+]1(C)CCC(OC(=O)C(O)(c2ccccc2)C2CCCC2)C1.[Br-]` (stereo not drawn) [Formulation E3], in data set [5], the D10 came out at 1.23 μm, the D50 is reported as 3.79 μm and the D90 is 7.85 μm. In data set [6] (T = 0), the “% FPD” value is reported as 38.7% and the MMAD stood at 3.2 μm. Besides, in data set [6] (T = 2 wks), the “% FPD” value is 32.7% and the MMAD is listed as 3.7 μm.
Consider `C[N+]1(C)CCC(OC(=O)C(O)(c2ccccc2)C2CCCC2)C1.[Br-]` (stereo not drawn) [Remicronised Batch C], for which, in data set [1], the “state of bulk powder on storage” value is recorded as “only soft lumps”. Moreover, in data set [2], the “Sympatec sizing d10” value was 1.0 μm, the “Sympatec sizing d50” value worked out at 2.4 μm and the “Sympatec sizing d90” value came out at 4.5 μm. Further, the Loss on drying in data set [4] is recorded as 0.5%.
For `C[N+]1(C)CCC(OC(=O)C(O)(c2ccccc2)C2CCCC2)C1.[Br-]` (stereo not drawn) [amorphous glycopyrrolate], the hygroscopicity entry in data set [3] (obtained by lyophilisation, confirmed by DVS at RH>0%) was “very hygroscopic”.
